Measured values taken from the supplement of paper PMC8967900.

Key:
Assay in all cases: selective drug sensitivity score (sDSS, relative to normal bone marrow) (sDSS (score)); higher = more potent and effective on the cell line relative to normal bone marrow cells
Conditions in all cases: 72 h
ALL-PO = system: ALL-PO
COG-LL-317 = system: COG-LL-317
COG-LL-332h = system: COG-LL-332h
COG-LL-355h = system: COG-LL-355h
COG-LL-394h = system: COG-LL-394h
HPB-ALL = system: HPB-ALL
KARPAS-45 = system: KARPAS-45
KASUMI-10 = system: KASUMI-10
KASUMI-9 = system: KASUMI-9
LC4-1 = system: LC4-1
MHH-CALL-2 = system: MHH-CALL-2
MHH-CALL-4 = system: MHH-CALL-4
MN-60 = system: MN-60
MOLT-16 = system: MOLT-16
NALM-16 = system: NALM-16
NALM-6 = system: NALM-6
P12-ICHIKAWA = system: P12-ICHIKAWA
PF-382 = system: PF-382
RCH-ACV = system: RCH-ACV
SUP-B15 = system: SUP-B15
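Further: ALL cell lines in 384-well plates, five doses spanning 10,000-fold, each plate scaled between vehicle and 100 µmol/L benzalkonium chloride controls, sDSS an adapted area-under-curve metric.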

Row | Structure (SMILES) | selective drug sensitivity score (ALL-PO) | selective drug sensitivity score (COG-LL-317) | selective drug sensitivity score (COG-LL-332h) | selective drug sensitivity score (COG-LL-355h) | selective drug sensitivity score (COG-LL-394h) | selective drug sensitivity score (HPB-ALL) | selective drug sensitivity score (KARPAS-45) | selective drug sensitivity score (KASUMI-10) | selective drug sensitivity score (KASUMI-9) | selective drug sensitivity score (LC4-1) | selective drug sensitivity score (MHH-CALL-2) | selective drug sensitivity score (MHH-CALL-4) | selective drug sensitivity score (MN-60) | selective drug sensitivity score (MOLT-16) | selective drug sensitivity score (NALM-16) | selective drug sensitivity score (NALM-6) | selective drug sensitivity score (P12-ICHIKAWA) | selective drug sensitivity score (PF-382) | selective drug sensitivity score (RCH-ACV) | selective drug sensitivity score (SUP-B15)
1 | Cc1ccc(C(=O)N(CCCN)[C@@H](c2oc3cc(Cl)ccc3c(=O)c2Cc2ccccc2)C(C)C)cc1 (top concentration 100 nM) | -0.24 | 1.16 | 6.96 | -2.64 | -2.24 | 13.8 | 7.16 | 1.96 | 4.16 | 2.86 | 9.46 | 6.96 | -1.84 | 7.46 | 5.76 | 3.56 | 1.76 | 0.86 | 1.96 | 4.26
2 | C[C@@H](Oc1ccc2[nH]nc(/C=C/c3cnn(CCO)c3)c2c1)c1c(Cl)cncc1Cl (top concentration 1000 nM) | 4.96 | -2.74 | 1.96 | 0.36 | -0.54 | 1.46 | 0.56 | 5.46 | -1.54 | 1.36 | -0.74 | -0.64 | -7.04 | -2.04 | -1.44 | 7.16 | -2.64 | -2.14 | 10.6 | 6.76
3 | CCn1c(C(=O)N(C2CC2)C2CC2)cc2c3c(ncn3C)c(Nc3cc(C)n(C)n3)nc21 (top concentration 10000 nM) | 8.14 | -4.36 | -4.36 | 1.14 | -4.36 | -3.16 | -3.06 | -0.66 | 0.04 | -4.36 | 3.44 | -1.56 | -4.36 | -4.36 | -4.36 | -4.36 | -4.36 | -4.36 | -3.06 | -4.36
4 | CNc1nc(-c2ccc3c(N)n[nH]c3c2)cc(N2C[C@@H](C(=O)NC3CCCCC3)CC[C@H]2C)n1 (top concentration 10000 nM) | 8.86 | -0.14 | -0.14 | 6.66 | -0.14 | 1.86 | -0.14 | 0.46 | 6.36 | 0.76 | 6.16 | 3.46 | 2.96 | -0.14 | 3.86 | 2.96 | -0.14 | 2.76 | 18.6 | 9.96
5 | COc1ccc(Cn2ccc3ccc(C(=O)NO)cc32)cc1 (top concentration 10000 nM) | 2.84 | 13.7 | 8.14 | 0.74 | 0.94 | 0.84 | 2.94 | 3.14 | 2.24 | 4.54 | 6.24 | 0.64 | 3.44 | 4.04 | 2.44 | 1.54 | 2.34 | 1.84 | 1.54 | 3.64
6 | N#Cc1ccc(COC[C@H]2O[C@@H](n3c(NCc4ccc(Cl)c(Cl)c4)nc4c(N)ncnc43)[C@H](O)[C@@H]2O)cc1 (top concentration 10000 nM) | 4.82 | 6.22 | 10.4 | 2.22 | -0.08 | 4.32 | 7.82 | -0.68 | -0.58 | 0.32 | 0.52 | -0.68 | 2.12 | 9.72 | -0.88 | 5.92 | 7.22 | 8.82 | 8.62 | 5.72
7 | NC[C@@](O)(c1ccc(Cl)cc1)c1ccc(-c2cn[nH]c2)cc1 (top concentration 10000 nM) | 3.98 | 0.98 | 2.68 | 3.28 | -1.22 | -0.72 | 2.78 | -1.22 | 3.78 | 1.28 | 2.58 | 1.78 | 0.58 | 0.38 | -1.22 | 1.28 | 3.58 | 1.28 | 7.58 | 6.78
8 | O=c1[nH]c(C2CCCN2)nc2c1oc1ccc(Cl)cc12 (stereo not given) (top concentration 10000 nM) | -0.2 | 3.3 | 6.7 | 2.1 | 0.5 | -2.4 | 0.9 | -2.7 | -1 | 1.8 | 1 | -1.2 | -2.7 | -0.5 | -1.9 | -0.4 | 0.1 | 2.4 | 5.1 | 1.8
9 | NCC(=O)Nc1ccc(-n2nc(C(F)(F)F)cc2-c2ccc3c(ccc4ccccc43)c2)cc1 (top concentration 25000 nM) | 7.7 | 11.3 | 14.3 | -0.2 | -0.2 | 7.6 | 6.9 | 0 | 8.1 | 2.7 | 7.1 | 2.9 | 18.9 | 19 | 5.4 | 13.3 | 16.7 | 8 | 17.3 | 7.5
10 | Nc1ncnc2c1nc(Cl)n2[C@@H]1O[C@H](CO)[C@@H](O)[C@H]1O [8-chloro-adenosine] (top concentration 50000 nM) | 1.6 | 6 | 0.9 | -3.6 | 5.1 | -4.8 | 1.8 | 7.5 | 2.4 | 2.9 | 2.4 | 1.6 | -2.8 | 7.1 | -3.1 | 1.1 | -2.4 | -1.9 | 1.4 | 7.3
11 | COc1ccc(S(=O)(=O)Nc2cccnc2Nc2ccc(O)cc2)cc1 [ABT-751] (top concentration 10000 nM) | 13.3 | 11.4 | 11.1 | 1.02 | 3.72 | 13.2 | 12.2 | 8.12 | 10.4 | 11.7 | 12.6 | 3.52 | 5.42 | 12.6 | 11.5 | 10.7 | 10.4 | 9.42 | 11.7 | 10.8
12 | CC1CCC(n2c3cnccc3c3cnc(Nc4ccc5c(n4)CCN(C(=O)CO)C5)nc32)CC1 (stereo not given) [AMG-925] (top concentration 1000 nM) | 11.4 | 1.44 | 4.34 | 2.34 | -0.66 | 5.84 | 1.84 | 9.54 | 8.24 | 9.24 | 4.94 | 3.54 | -0.66 | 10.5 | 6.34 | 4.74 | 3.84 | 5.44 | 14.7 | 11.7
13 | O=C(NC1CCNCC1)c1n[nH]cc1NC(=O)c1c(Cl)cccc1Cl [AT7519] (top concentration 10000 nM) | -14.4 | -4.06 | -5.06 | 2.74 | -1.06 | -10.8 | -4.16 | -2.76 | -3.66 | -4.26 | -2.06 | -1.26 | -11.4 | -3.06 | -8.16 | -2.76 | -8.66 | -7.16 | -3.16 | -4.56
14 | Cc1cc2c(C(C)C)c(O)c(O)c(C=O)c2c(O)c1-c1c(C)cc2c(C(C)C)c(O)c(O)c(C=O)c2c1O [AT-101] (top concentration 100000 nM) | 8.98 | 8.08 | 4.08 | 4.98 | 3.78 | 10.9 | 5.98 | 2.48 | 6.48 | 9.28 | 4.18 | 3.98 | 3.28 | 5.88 | 0.98 | 6.38 | 2.78 | 1.98 | 0.98 | 5.78
15 | N[C@@H]1CCCN(c2c(/C=C3\SC(=O)NC3=O)cccc2-c2ccccc2)C1 [AZD1208] (top concentration 10000 nM) | 8.5 | -4.4 | -2.9 | 12.4 | 1 | -4.4 | -3.3 | -4.4 | -1.7 | -3.8 | 3.7 | 3.9 | -1.8 | -4.4 | -3.2 | -4.4 | -4 | -3.8 | 0.6 | -4.4
16 | Cc1ncc(-c2ccnc(Nc3ccc(S(C)(=O)=O)cc3)n2)n1C(C)C [AZD-5438] (top concentration 10000 nM) | -6.06 | -0.56 | -0.16 | 3.94 | -5.86 | -5.06 | 2.64 | 6.04 | -0.26 | 0.44 | -1.06 | -6.86 | -7.96 | 5.44 | -6.16 | 1.44 | -0.36 | -2.46 | 2.44 | 9.74
17 | CCN1CCN(Cc2ccc(Nc3ncc(F)c(-c4cc(F)c5nc(C)n(C(C)C)c5c4)n3)nc2)CC1 [Abemaciclib] (top concentration 2500 nM) | -3.36 | -2.36 | -1.66 | 6.44 | -3.26 | -2.46 | -4.66 | -1.06 | 5.44 | 2.94 | -3.96 | -1.76 | -8.16 | 8.24 | -6.46 | -4.46 | -4.06 | -1.26 | 8.74 | 6.74
18 | Cn1ncc(Cl)c1-c1cc(C(=O)N[C@H](CN)Cc2cccc(F)c2)sc1Cl [Afuresertib] (top concentration 1000 nM) | 4.26 | 5.26 | 2.86 | 2.76 | -0.94 | 2.86 | 3.06 | -2.34 | 1.86 | 0.86 | 7.36 | 5.06 | -0.54 | 10.4 | 1.46 | 4.66 | -0.44 | 2.66 | 5.36 | 5.66
19 | O=C(Nc1cc(Oc2cc(F)c(NC(=O)C3(C(=O)Nc4ccc(F)cc4)CC3)cc2F)ccn1)C1CC1 [Altiratinib] (top concentration 10000 nM) | 8.94 | -0.46 | 3.84 | -0.36 | 1.84 | 3.54 | 2.74 | 8.84 | -0.16 | -0.36 | 3.74 | 2.84 | -4.86 | 0.04 | -2.56 | 1.34 | 0.34 | 0.64 | 7.24 | 6.64
